This note sets out measurements from patent US4336400A, “3-(Hydroxy or hydroxymethyl)-4-hydroxy-alpha(aminomethyl)benzyl alcohols and methods of use” (Sterling Drug Inc., priority 1978, dated 1982).

The structures appear in SMILES notation. Where “and” joins values, the source holds several entries; their conditions need not be identical. Equal values may be shown once. Where a name gives a salt, the structure may show the parent alone.

The test system of data set [1] is guinea pig bronchioles constricted by carbachol. Description: Bronchodilator Test Method II: in vitro, perfused guinea pig lung, bronchioles constricted by carbachol. Particulars: for Bronchodilator Action, Duration (min) Mean: dose mcg(base) given. The method, then:
Bronchodilator activity was tested in anesthetized dogs (Test Method I) and in vitro on the perfused guinea pig lung (Test Method II), using the following pharmacological test procedures:
In this method bronchodilator activity in vitro was determined by testing the effect of graded doses of the test compounds on guinea pig bronchioles constricted by carbachol, using the technique reported by Sollman and von Oettingen, Proc. Soc. Exp. Biol. Med., 25, 692 (1928) as modified by Tainter, Pedden, and James, J. Pharm. Exp. Ther., 51, 371 (1934) and by Luduena, von Euler, Tuller, and Lands, Arch. Intern. Pharmacol., III, 392 (1957).

A short description of data set [2]: Solubility, pH of solution and precipitation. The class given is physicochemical. The following applies: for precipitation when the pH was adjusted to 7.0 with N/10 sodium hydroxide: 1 percent aqueous solution, pH 7.0; for precipitation on dilution of a 1 percent dimethyl sulfoxide solution with three volumes of water: 1 percent solution in dimethyl sulfoxide; for precipitation on dilution of a 1 percent glycerol formal solution with three volumes of water: 1 percent solution in glycerol formal.

In the next data set the test system is diastolic blood pressure. Description: Effect on diastolic blood pressure in the anesthetized dog, intravenous. The class given is in vivo. The following applies: i.v., dose (salt) mcg/kg. As for the experimental part:
Injections were repeated at 20-30 minutes.
Cardiovascular Studies The effect of a rapid intravenous injection on the heart rate was conducted in anesthetized dogs under normal respiration. A few open-chest dogs were also tested. Increase in heart rate was measured by using an electrocardiograph attached to the dog. Readings were taken every 0.5-1 minutes for the first 10 minutes and every 2-5 minutes thereafter until recovery. In some cases, several doses and more than one compound were tested alternately in the same dog. The blood pressure effect was simultaneously recorded.

The test system of the next data set is normal airway pressure. Description: Control bronchoconstriction in anesthetized dog. Format: in vivo. The following applies: i.v., carbachol 4 to 6 micrograms per kilogram, histamine diphosphate 35 to 45 micrograms per kilogram, majority of test animals. As for the experimental part:
Test Method I: Male and female dogs weighing 9-18 kg. each were anesthetized with pentobarbital sodium (30 mg./kg. i.v.). Each animal, with thorax opened at the mid-sternum, was maintained under artificial ventilation using a constant volume pump (250 ml./stroke; ten to twelve strokes per minute) attached to the tracheal cannula. The flow of air was controlled by a glass or plastic valve which closed and opened respectively on inflow and outflow of the air to and from the tracheal cannula. Bronchoconstriction and/or bronchodilatation were measured from changes in the basal airway pressure reflected by a transducer attached to the sidearm of the cannula relayed to a polygraph.
Control bronchoconstrictions were induced by intravenous injections of carbachol (choline chloride carbamate) in doses ranging from 4 to 6 micrograms per kilogram or histamine diphosphate in doses ranging from 35 to 45 micrograms per kilogram.

Take `CC(C)(C)CC(=O)Oc1ccc(C(O)CNC(C)(C)C)cc1OC(=O)CC(C)(C)C.Cl` (stereo not drawn) [Example 7, 3,4-bis(3,3-dimethylbutanoyloxy)-alpha-(tert-butylaminomethyl)benzyl alcohol hydrochloride]: in data set [1] (Doryl conc. 1:5 million), the ED50 is 23 mcg(base) and the “Bronchodilator Action, Duration (min) Mean” value (from here on “Bronchodilator Action”) is 85 ± 17 min.

With `CC(C)CC(=O)Oc1ccc(C(O)CNC(C)(C)C)cc1OC(=O)CC(C)C.Cl` (stereo not drawn) [Example 3, 3,4-bis(isovaleryloxy)-alpha-(tert-butylaminomethyl)benzyl alcohol hydrochloride], the “precipitation when the pH was adjusted to 7.0 with N/10 sodium hydroxide” value in data set [2] was “a precipitate formed”. For the same compound, in data set [1] (Doryl conc. 1:5 million), the ED50 is on record as 0.6 mcg(base) and the “Bronchodilator Action” value amounted to 18 ± 4 min.

Take `CCC(NC1CCCC1)C(O)c1ccc(OC(=O)CC(C)C)c(OC(=O)CC(C)C)c1.Cl` (stereo not drawn) [Example 138, 3,4-bis(isovaleryloxy)-alpha-[1-(cyclopentylamino)propyl]benzyl alcohol hydrochloride]: in data set [1] (Doryl conc. 1:5 million), the ED50 was 0.46 mcg(base) and the “Bronchodilator Action” value is 25.4 ± 3.5 min.

For the compound `COc1ccc(C(=O)Oc2ccc(C(O)CNC(C)(C)C)cc2OC(=O)c2ccc(OC)cc2)cc1.Cl` (stereo not drawn) [Example 33, 3,4-bis(p-anisoyloxy)-alpha-(tert-butylaminomethyl)-benzyl alcohol hydrochloride], in data set [2], the “precipitation on dilution of a 1 percent dimethyl sulfoxide solution with three volumes of water” value was “no precipitate formed” and the “precipitation on dilution of a 1 percent glycerol formal solution with three volumes of water” value was “no precipitate formed”. For the same compound, in data set [1] (Doryl conc. 1:5 million), the ED50 is on record as 6.9 mcg(base) and the “Bronchodilator Action” value amounted to 32 ± 5 min.

For the compound `Cc1ccc(C(=O)Oc2ccc(C(O)CNC(C)(C)C)cc2OC(=O)c2ccc(C)cc2)cc1` (stereo not drawn) [Example 30, 3,4-bis(p-toluyloxy)-alpha-(tert-butylaminomethyl)-benzyl alcohol methanesulfonate], the “Mean Decrease in Diastolic Blood Pressure in %” value with diastolic blood pressure is 2% and 11% and 11.5%.

Consider `CC(C)(C)NCC(O)c1ccc(OC(=O)C2CCCCC2)c(OC(=O)C2CCCCC2)c1.Cl` (stereo not drawn) [Example 15, 3,4-bis(cyclohexanecarbonyloxy)-alpha-(tert-butylaminomethyl)benzyl alcohol hydrochloride], for which, in data set [2], the “precipitation on dilution of a 1 percent dimethyl sulfoxide solution with three volumes of water” value is “no precipitate formed”. For the same compound, in data set [1] (Doryl conc. 1:5 million), the ED50 was 1.3 mcg(base) and the “Bronchodilator Action” value was 53 ± 7 min.

Turning to `CC(C)(C)NCC(O)c1ccc(O)c(O)c1` (stereo not drawn) [Ref. Cpd. I, 3,4-Dihydroxy-alpha-(tert-butylaminomethyl)benzyl alcohol, reference compound], in data set [1] (Doryl conc. 1:5 million), the ED50 is on record as 0.18 mcg(base) and the “Bronchodilator Action” value is given as 5 ± 1.4 min.

For `CC(C)(C)NCC(O)c1ccc(OC(=O)C(C)(C)C)c(OC(=O)C(C)(C)C)c1.Cl` (stereo not drawn) [Example 5, 3,4-bis(pivalyloxy)-alpha-(tert-butylaminomethyl)-benzyl alcohol hydrochloride], in data set [1] (Doryl conc. 1:5 million), the ED50 is reported as 0.94 mcg(base) and the “Bronchodilator Action” value is 18 ± 4.2 min.

In the case of `CC(C)(C)NCC(O)c1ccc(OC(=O)c2ccccc2)c(OC(=O)c2ccccc2)c1.Cl` (stereo not drawn) [Example 29, 3,4-bis(benzoyloxy)-alpha-(tert-butylaminomethyl)-benzyl alcohol hydrochloride], in data set [2], the “precipitation on dilution of a 1 percent dimethyl sulfoxide solution with three volumes of water” value was “no precipitate formed” and the “precipitation on dilution of a 1 percent glycerol formal solution with three volumes of water” value is recorded as “no precipitate formed”. In data set [1] (Doryl conc. 1:5 million), the ED50 was 1.1 mcg(base) and the “Bronchodilator Action” value was found to be 34 ± 6.4 min.

Turning to `NCCc1c[nH]cn1` [histamine diphosphate], the “increase in the normal airway pressure or amplitude” value in the data set with normal airway pressure was 100-200%.

On to `CCCC(=O)Oc1ccc(C(O)CNC(C)(C)C)cc1OC(=O)CCC.Cl` (stereo not drawn) [Example 1, 3,4-bis(butyryloxy)-alpha-(tert-butylaminomethyl)-benzyl alcohol hydrochloride], for which the “precipitation when the pH was adjusted to 7.0 with N/10 sodium hydroxide” value in data set [2] is “a precipitate formed”. In data set [1] (Doryl conc. 1:5 million), the ED50 is recorded as 0.23 mcg(base) and the “Bronchodilator Action” value amounted to 9 ± 1.0 min.

Turning to `CCC(C)CC(=O)Oc1ccc(C(O)CNC(C)(C)C)cc1OC(=O)CC(C)CC.Cl` (stereo not drawn) [Example 6, 3,4-bis(3-methylpentanoyloxy)-alpha-(tert-butylaminomethyl)benzyl alcohol hydrochloride], in data set [1] (Doryl conc. 1:5 million), the ED50 is 1.3 mcg(base) and the “Bronchodilator Action” value turned out to be 43 ± 3.7 min.

Consider `COc1ccc(C(=O)Oc2ccc(C(O)CNC(C)(C)C)cc2OC(=O)c2ccccc2)cc1.Cl` (stereo not drawn) [Example 143, 3-benzoyloxy-4-(p-anisoyloxy)-alpha-(tert-butylaminomethyl)benzyl alcohol hydrochloride], for which, in data set [1] (Doryl conc. 1:10 million), the ED50 was 1.53 mcg(base) and the “Bronchodilator Action” value worked out at 29.2 ± 10.2 min.

Consider `CC(C)(C)NCC(O)c1ccc(OC(=O)C2(C)CC2)c(OC(=O)C2(C)CC2)c1.Cl` (stereo not drawn) [Example 13, 3,4-bis(1-methylcyclopropanecarbonyloxy)-alpha-(tert-butylaminomethyl)benzyl alcohol hydrochloride], for which, in data set [1] (Doryl conc. 1:5 million), the ED50 was 0.45 mcg(base) and the “Bronchodilator Action” value turned out to be 15 ± 1.7 min.

As for `CC(C)NCC(O)c1ccc(O)c(O)c1` (stereo not drawn) [Ref. Cpd. II, 3,4-Dihydroxy-alpha-(isopropylaminomethyl)benzyl alcohol, reference compound], the “Bronchodilator Action” value in data set [1] (Doryl conc. 1:5 million) is listed as 5 min.

For `COc1ccc(C(=O)Oc2ccc(C(O)CNC(C)(C)C)cc2COC(C)=O)cc1` (stereo not drawn) [Example 151, 3-(acetoxymethyl)-4-(p-anisoyloxy)-alpha-(tert-butylaminomethyl)benzyl alcohol methanesulfonate], the “Mean Decrease in Diastolic Blood Pressure in %” value in the data set on diastolic blood pressure was determined as 10%.

`C[N+](C)(C)CCOC(N)=O` [carbachol, choline chloride carbamate]: the “increase in the normal airway pressure or amplitude” value in the data set with normal airway pressure is 100-200%.

In the case of `CC(C)C(=O)Oc1ccc(C(O)CNC(C)(C)C)cc1OC(=O)C(C)C.Cl` (stereo not drawn) [Example 2, 3,4-bis(isobutyryloxy)-alpha-(tert-butylaminomethyl)-benzyl alcohol hydrochloride], in data set [1] (Doryl conc. 1:5 million), the ED50 is listed as 0.28 mcg(base) and the “Bronchodilator Action” value was found to be 9 ± 1.1 min.

`CCC(C)C(=O)Oc1ccc(C(O)CNC(C)(C)C)cc1OC(=O)C(C)CC.Cl` (stereo not drawn) [Example 4, 3,4-bis(2-methylbutanoyloxy)-alpha-(tert-butylaminomethyl)benzyl alcohol hydrochloride]: in data set [1] (Doryl conc. 1:5 million), the ED50 is 0.45 mcg(base) and the “Bronchodilator Action” value is on record as 20 ± 3 min.

Regarding `CC(C)CC(=O)Oc1cc(C(O)CNC(C)(C)C)ccc1OC(=O)C(C)(C)C.Cl` (stereo not drawn) [Example 71, 3-(isovaleryloxy)-4-(pivalyloxy)-alpha-(tert-butylaminomethyl)benzyl alcohol hydrochloride], in data set [1] (Doryl conc. 1:5 million), the ED50 is on record as 0.63 mcg(base) and the “Bronchodilator Action” value is 26 min.

As for `CCC(NC(C)(C)C)C(O)c1ccc(OC(=O)c2ccc(C)cc2)c(OC(=O)c2ccc(C)cc2)c1` (stereo not drawn) [Example 144, 3,4-bis(p-toluyloxy)-alpha-[1-(tert-butylamino)-propyl]benzyl alcohol hydrochloride], the “Bronchodilator Action” value in data set [1] (Doryl conc. 1:5 million) is given as 83 ± 26.8 min.
